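Interpolation was linear, between the two tested concentrations surrounding the appropriate level; five concentrations were tested over 48 hours in 96-well plates. GI50: concentration for 50% inhibition of growth.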 Active and inactive are the calls of the source. No stated cut-off is given here; in the data, active = GI50 up to about 1.1 µM and inactive = higher.
Key:
Test in all cases: inhibition of tumour cell growth, NCI panel, 48 h
[1] = system: HCT-116
[2] = system: SF-268
[3] = system: M14
[4] = system: HCT-15
[5] = system: SNB-75
[6] = system: NCI-H522
[7] = system: UO-31
[8] = system: NCI-H226
[9] = system: CCRF-CEM
[10] = system: PC-3
[11] = system: NCI/ADR-RES
[12] = system: SR
[13] = system: KM12
[14] = system: MOLT-4
[15] = system: U-251
[16] = system: A498
[17] = system: 786-0
[18] = system: HOP-62
[19] = system: SK-OV-3
[20] = system: MDA-N
[21] = system: MDA-MB-231
[22] = system: RPMI-8226
[23] = system: SW-620
[24] = system: DU-145
[25] = system: Malme-3M
[26] = system: NCI-H23
[27] = system: SK-MEL-5
[28] = system: MDA-MB-435
[29] = system: OVCAR-3
[30] = system: SF-539
[31] = system: ACHN
[32] = system: EKVX
[33] = system: OVCAR-5
[34] = system: HT-29
[35] = system: T47D
[36] = system: SN12C
[37] = system: IGROV-1
[38] = system: CAKI-1
[39] = system: K562
[40] = system: SF-295
[41] = system: UACC-62
[42] = system: MCF7
[43] = system: BT-549
[44] = system: A549
[45] = system: NCI-H460
[46] = system: SNB-19
[47] = system: UACC-257
[48] = system: HOP-92
[49] = system: LOX IMVI
[50] = system: SK-MEL-28
[51] = system: RXF 393
[52] = system: COLO 205
[53] = system: SK-MEL-2
[54] = system: OVCAR-4
[55] = system: HCC 2998
[56] = system: TK-10
[57] = system: OVCAR-8
[58] = system: Hs-578T
[59] = system: HL-60

Measured: GI50

COc1ccc2c(c1)CC[C@@H]1[C@@H]2CC[C@]2(C)C(=O)/C(=C/c3ccncc3)C[C@@H]12
inactive: [1] 28.2 µM | [2] 36.1 µM | [3] 31.7 µM | [5] 32.1 µM | [6] 30.4 µM | [7] 37.2 µM | [8] 63 µM | [9] > 100 µM | [10] 29.3 µM | [11] 48.8 µM | [12] 47.2 µM | [13] 27.2 µM | [14] > 100 µM | [15] 54.3 µM | [16] 27.3 µM | [17] 32.3 µM | [18] 19.9 µM | [19] 32.9 µM | [20] 42.6 µM | [21] 64.7 µM | [22] 93.8 µM | [23] 31.2 µM | [24] 38.8 µM | [25] 25.8 µM | [26] 35.3 µM | [27] 20.2 µM | [28] 30.4 µM | [29] 17.8 µM | [30] 25.5 µM | [31] 42.5 µM | [32] 53.6 µM | [33] 48.9 µM | [34] 33.1 µM | [35] 33.3 µM | [36] 55.6 µM | [37] 56.1 µM | [38] 46.5 µM | [39] > 100 µM | [40] 22.4 µM | [41] 31.6 µM | [42] 61.4 µM | [43] 67.5 µM | [44] 30.8 µM | [45] 27.8 µM | [46] 44.3 µM | [47] 29.3 µM | [48] 27.9 µM | [49] 37.8 µM | [50] 33.6 µM | [51] 18.2 µM | [52] 25.3 µM | [53] 22.5 µM | [54] 48.2 µM | [55] 27.4 µM | [56] 30.6 µM | [57] 51.6 µM
41.4 µM: [4]

CCOC(=O)C(CCc1ncnc2c1ncn2Cc1ccccc1)(CCc1ncnc2c1ncn2Cc1ccccc1)C(=O)OCC
inactive: [1] 51.4 µM | [2] 69.5 µM | [3] 54.6 µM | [6] 33.9 µM | [7] 2.64 µM | [8] 27.7 µM | [10] 27 µM | [11] 49.7 µM | [12] 26.4 µM | [13] 46.9 µM | [14] 13.4 µM | [58] 83.2 µM | [15] 62.1 µM | [16] 47.4 µM | [17] 41.1 µM | [18] > 100 µM | [20] 33 µM | [21] 53.3 µM | [22] 23.6 µM | [23] > 100 µM | [24] 89.3 µM | [25] 61.7 µM | [26] 46.1 µM | [27] 48.5 µM | [28] 52.1 µM | [29] 90.8 µM | [30] 30.3 µM | [31] 81.8 µM | [32] 63.7 µM | [33] > 100 µM | [34] 42.9 µM | [36] 58.6 µM | [37] 89.9 µM | [38] 51.8 µM | [39] 42.5 µM | [40] 70.3 µM | [41] 26.2 µM | [42] 37.9 µM | [43] 76.6 µM | [44] 39.2 µM | [45] 40.4 µM | [59] 38.3 µM | [46] > 100 µM | [47] 31.7 µM | [48] 69.7 µM | [49] 44.4 µM | [50] 98.9 µM | [51] 32.4 µM | [52] 24.2 µM | [53] 44.1 µM | [54] 59.4 µM | [55] 19.9 µM | [56] 82.6 µM | [57] 64.1 µM
52.7 µM: [4]

Cc1cc(O)no1 [HYMEXAZOL]
> 100 µM: [4]
inactive: [1] > 100 µM | [2] > 100 µM | [3] > 100 µM | [5] > 100 µM | [6] > 100 µM | [7] > 100 µM | [8] > 100 µM | [10] > 100 µM | [11] > 100 µM | [58] > 100 µM | [15] > 100 µM | [17] > 100 µM | [18] > 100 µM | [19] > 100 µM | [21] > 100 µM | [22] > 100 µM | [23] > 100 µM | [26] > 100 µM | [28] > 100 µM | [29] > 100 µM | [30] > 100 µM | [31] 18.9 µM | [32] > 100 µM | [33] > 100 µM | [34] > 100 µM | [37] > 100 µM | [38] > 100 µM | [39] > 100 µM | [40] > 100 µM | [41] > 100 µM | [42] > 100 µM | [43] > 100 µM | [44] > 100 µM | [45] > 100 µM | [46] > 100 µM | [47] > 100 µM | [48] > 100 µM | [49] > 100 µM | [50] > 100 µM | [51] > 100 µM | [52] > 100 µM | [53] > 100 µM | [54] > 100 µM | [55] > 100 µM | [56] > 100 µM | [57] > 100 µM

Source: ChEMBL document CHEMBL1201862, “PubChem BioAssay data set” (2004)
